Measurements published in patent US9776972B2, “Pyrazole derivatives as arginine methyltransferase inhibitors and uses thereof” (priority 2013, dated 2017).
Read-outs that look alike come from different tables or passages of the source.

Key:
[1] = target: T1, human PRMT6 (Homo sapiens, UniProt Q96LA8); test: PRMT6 Biochemical Assay (3H-SAM Flashplate, peptide substrate)
T1 construct: Flag-PRMT6-His; made in house; host or cells: HEK 293F cells (BacMam baculovirus)
In short: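 Flag-PRMT6-His, expressed in mammalian cells from a BacMam vector, was preincubated with compound for 30 min at room temperature in Bicine pH 7.6 buffer with TCEP, BSG and Tween 20. Reactions were started with ³H-SAM and a biotinylated histone H4 36-50 peptide, then stopped with cold SAM (400 uM final). Labeled peptide was captured on streptavidin Flashplates, counted, and fitted to a 3- or 4-parameter curve.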

[2] = target: human PRMT8 (Homo sapiens, UniProt Q9NR22); test: PRMT8 Biochemical Assay (3H-SAM Flashplate, peptide substrate); conditions: single experiment or average of multiple experiments
In short: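 E. coli-expressed human PRMT8 (GST removed) was preincubated with compound for 30 min at room temperature in 20 mM Bicine pH 7.6 with TCEP, BSG and Tween 20. 3H-SAM and a biotinylated H4 31-45 peptide were then added, and the reaction was stopped with cold SAM. Labelled peptide was captured on streptavidin Flashplates; % inhibition was calculated against DMSO and SAH controls and fitted to a 3- or 4-parameter curve.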

[3] = single experiment or average of multiple experiments, read-out: Biochemical IC50 PRMT6
[4] = Biochemical IC50 PRMT6, single experiment or average of multiple experiments

T1 sequence (Q96LA8 with tags, fused parts or gaps): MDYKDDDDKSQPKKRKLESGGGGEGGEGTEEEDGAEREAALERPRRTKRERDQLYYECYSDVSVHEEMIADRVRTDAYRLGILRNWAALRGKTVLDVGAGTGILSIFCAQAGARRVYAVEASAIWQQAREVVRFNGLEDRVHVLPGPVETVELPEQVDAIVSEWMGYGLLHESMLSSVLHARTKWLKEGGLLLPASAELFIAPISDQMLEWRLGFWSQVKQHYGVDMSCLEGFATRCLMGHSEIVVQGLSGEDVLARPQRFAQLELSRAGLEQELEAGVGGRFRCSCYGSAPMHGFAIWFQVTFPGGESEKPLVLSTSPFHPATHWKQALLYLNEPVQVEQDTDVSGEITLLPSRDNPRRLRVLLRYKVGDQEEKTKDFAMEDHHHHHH
human PRMT8, sequence (Q9NR22 whole entry): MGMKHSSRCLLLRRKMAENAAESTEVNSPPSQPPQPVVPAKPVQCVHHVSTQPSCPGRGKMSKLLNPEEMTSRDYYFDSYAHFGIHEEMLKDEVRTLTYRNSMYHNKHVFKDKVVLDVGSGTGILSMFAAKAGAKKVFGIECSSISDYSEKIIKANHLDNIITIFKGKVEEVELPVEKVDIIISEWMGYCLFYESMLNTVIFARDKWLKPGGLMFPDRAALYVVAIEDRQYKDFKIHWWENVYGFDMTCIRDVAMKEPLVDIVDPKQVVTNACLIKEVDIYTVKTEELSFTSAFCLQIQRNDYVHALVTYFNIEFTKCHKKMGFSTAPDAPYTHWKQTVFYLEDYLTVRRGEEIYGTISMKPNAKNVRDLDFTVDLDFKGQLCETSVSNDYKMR

Row | IC50 [1, 4] [µM] | IC50 [2] [µM] | Structure (SMILES) | IC50 [1, 3] [µM]
1 | – | – | CN(CCN)Cc1c[nH]nc1-c1ccc(F)cc1 [Compound 1] | 0.011
2 | 0.027 | 0.96 | CN(CCN)Cc1cn(C)nc1-c1ccc(F)cc1 [Compound 3] | –
3 | 0.467 | 4.2 | COCCn1cc(CN(C)CCN)c(-c2ccc(F)cc2)n1 [Compound 5] | –
4 | – | 0.396 | CCN(CCNC)Cc1c[nH]nc1-c1ccc(F)cc1 [Compound 9] | –
5 | – | 0.693 | CNCCN(C)Cc1cnn(C)c1-c1ccc(F)cc1 [Compound 10] | –
6 | 0.191 | – | CNCCN(C)Cc1cnn(CC2CCOCC2)c1-c1ccc(F)cc1 [Compound 12] | –
7 | 0.0378 | 0.596 | CNCCN(C)Cc1c[nH]nc1-c1cccc(OC(F)(F)F)c1 [Compound 39] | –
8 | 0.0441 | 2.17 | CNCCN(C)Cc1c[nH]nc1-c1ccccc1F [Compound 48] | –
9 | 0.0342 | 2.04 | CN(CCN)Cc1n[nH]cc1-c1ccc(F)cc1 [Compound 69] | –
10 | 0.0189 | 2.49 | CN(CCN)Cc1c[nH]nc1-c1cccc(C#N)c1 [Compound 70] | –
11 | 0.00816 | 0.347 | CN(CCN)Cc1c[nH]nc1-c1cccc(F)c1 [Compound 71] | –
12 | 0.0629 | 3.73 | CN(CCN)Cc1c[nH]nc1-c1ccccc1F [Compound 72] | –
13 | 0.0259 | 0.959 | CN(CCN)Cc1c[nH]nc1-c1ccccc1 [Compound 73] | –
14 | 0.0378 | 0.185 | CN(CCN)Cc1c[nH]nc1-c1ccc(C(C)(C)C)cc1 [Compound 74] | –
15 | 1.64 | 2.51 | CC(C)N(CCN)Cc1c[nH]nc1-c1ccc(F)cc1 [Compound 75] | –
16 | 0.0665 | 1.49 | NCCN(Cc1c[nH]nc1-c1ccc(F)cc1)C1CC1 [Compound 78] | –
17 | 0.105 | 3.45 | CN(CCN)Cc1cnn(C2COC2)c1-c1ccc(F)cc1 [Compound 81] | –
18 | 0.129 | 2.47 | CN(CCN)Cc1c[nH]nc1-c1ccc(N2CCNCC2)cc1 [Compound 82] | –
19 | 0.0528 | 0.71 | CN(CCN)Cc1nn(C)cc1-c1ccc(C#N)cc1 [Compound 83] | –
20 | 0.00916 | 0.74 | CN(CCN)Cc1c[nH]nc1-c1ccc(Cl)cc1Cl [Compound 86] | –
21 | 0.103 | 3.11 | COc1ccc(-c2n[nH]cc2CN(C)CCN)c(OC)c1 [Compound 87] | –
22 | 0.029 | 1.89 | Cc1ccc(-c2n[nH]cc2CN(C)CCN)c(C)c1 [Compound 88] | –
23 | 0.0135 | 1.73 | CN(CCN)Cc1c[nH]nc1-c1ccc(F)cc1Cl [Compound 89] | –
24 | 0.0102 | 1.38 | Cc1ccc(-c2n[nH]cc2CN(C)CCN)c(Cl)c1 [Compound 90] | –
25 | 0.237 | 6.9 | Cc1ccc(Cl)c(-c2n[nH]cc2CN(C)CCN)c1 [Compound 91] | –
26 | 0.00645 | 0.152 | CN(CCN)Cc1c[nH]nc1-c1ccc(C(F)(F)F)cc1 [Compound 92] | –
27 | 0.0107 | 0.0761 | CN(CCN)Cc1c[nH]nc1-c1ccc(OC(F)(F)F)cc1 [Compound 93] | –
28 | 0.00802 | 0.198 | CN(CCN)Cc1c[nH]nc1-c1ccc(OC(F)F)cc1 [Compound 94] | –
29 | 0.00561 | 0.207 | CN(CCN)Cc1c[nH]nc1-c1ccc(Cl)cc1 [Compound 95] | –
30 | 0.011 | – | CC(C)Oc1ccc(-c2n[nH]cc2CN(C)CCN)cc1Cl [Compound 168] | –

Row | Structure (SMILES) | IC50 [1, 4] [µM] | IC50 [2] [µM] | IC50 [1, 3] [µM]
31 | CN(CCN)Cc1cnn(C)c1-c1ccc(F)cc1 [Compound 4] | 0.0761 | 2.43 | –
32 | CNCCN(C)Cc1c[nH]nc1-c1cccc(N)c1 [Compound 32] | – | 1.53 | 0.0222
33 | CNCCN(C)Cc1c[nH]nc1-c1ccc(CC#N)cc1 [Compound 34] | – | 0.773 | 0.0113
34 | CNCCN(C)Cc1c[nH]nc1-c1ccccc1O [Compound 35] | – | 24.8 | 0.457
35 | CNCCN(C)Cc1c[nH]nc1-c1ccccc1NS(C)(=O)=O [Compound 41] | – | 40 | 8.14
36 | CNCCN(C)Cc1c[nH]nc1-c1cccc(NC(C)=O)c1 [Compound 42] | – | 1.54 | 0.0476
37 | CNCCN(C)Cc1c[nH]nc1-c1cccc(C(C)=O)c1 [Compound 44] | – | 0.522 | 0.0394
38 | CNCCN(C)Cc1c[nH]nc1-c1ccc(-c2ccccc2)cc1 [Compound 47] | – | 0.0908 | 0.00476
39 | CN(CCN)Cc1cn(C2COC2)nc1-c1ccc(F)cc1 [Compound 77] | 0.101 | 1.66 | –
40 | CN(CCN)Cc1c[nH]nc1-c1ccc(C(F)(F)F)cc1C(F)(F)F [Compound 85] | 0.701 | 4.26 | –
